The text below walks through data of patent US20230135524A1, “ARYL HYDANTOIN HETEROCYCLES AND METHODS OF USE” (The United States of America,as represented by the …, priority 2020, published 2023).

SMILES strings stand for the structures. Read-outs that look alike come from different tables or passages of the source.

Common to all, as to format: cell-based
One assay relates to LAPC4. Nature of the assay: IncuCyte % confluence cell growth inhibition, LAPC4. To be noted: Homo sapiens. How it is done: (§1) Images were then analyzed to discern the % confluence of cells in each well. IC50 values were calculated from dose response curves of the % cell growth inhibition relative to DMSO control at the same time point per each cell line.
In a further assay the test system is DU145. The assay can be described thus: IncuCyte % confluence cell growth inhibition, DU145. To be noted: Homo sapiens. As to the method: as §1
The test system of a further assay is 22Rv1. Nature of the assay: IncuCyte % confluence cell growth inhibition, 22Rv1. As to conditions: Homo sapiens. As to the method:
as §1

The next assay concerns LNCaP ARin vivo. The assay can be described thus: IncuCyte % confluence cell growth inhibition, LNCaP ARin vivo. To be noted: Homo sapiens, read-out: IC50 values (μM), LNCaP ARin vivo. As to the method:
as §1

The test system of the next assay is LNCaP. Nature of the assay: IncuCyte % confluence cell growth inhibition, LNCaP. To be noted: Homo sapiens, read-out: IC50 values (μM), LNCaP. As to the method:
as §1

Another assay deals with LNCAP AR. Nature of the assay: IncuCyte % confluence cell growth inhibition, LNCAP AR. To be noted: read-out: IC50 values (μM), LNCAP AR. As to the method: as §1
The next assay has as its system PC3. Nature of the assay: IncuCyte % confluence cell growth inhibition, PC3. As to conditions: Homo sapiens. As to the method:
as §1

For a further assay, the target named is T1, AR (Homo sapiens, UniProt P10275).
T1 construct: host or cells: HEK 293T
T1 sequence (P10275 1-920): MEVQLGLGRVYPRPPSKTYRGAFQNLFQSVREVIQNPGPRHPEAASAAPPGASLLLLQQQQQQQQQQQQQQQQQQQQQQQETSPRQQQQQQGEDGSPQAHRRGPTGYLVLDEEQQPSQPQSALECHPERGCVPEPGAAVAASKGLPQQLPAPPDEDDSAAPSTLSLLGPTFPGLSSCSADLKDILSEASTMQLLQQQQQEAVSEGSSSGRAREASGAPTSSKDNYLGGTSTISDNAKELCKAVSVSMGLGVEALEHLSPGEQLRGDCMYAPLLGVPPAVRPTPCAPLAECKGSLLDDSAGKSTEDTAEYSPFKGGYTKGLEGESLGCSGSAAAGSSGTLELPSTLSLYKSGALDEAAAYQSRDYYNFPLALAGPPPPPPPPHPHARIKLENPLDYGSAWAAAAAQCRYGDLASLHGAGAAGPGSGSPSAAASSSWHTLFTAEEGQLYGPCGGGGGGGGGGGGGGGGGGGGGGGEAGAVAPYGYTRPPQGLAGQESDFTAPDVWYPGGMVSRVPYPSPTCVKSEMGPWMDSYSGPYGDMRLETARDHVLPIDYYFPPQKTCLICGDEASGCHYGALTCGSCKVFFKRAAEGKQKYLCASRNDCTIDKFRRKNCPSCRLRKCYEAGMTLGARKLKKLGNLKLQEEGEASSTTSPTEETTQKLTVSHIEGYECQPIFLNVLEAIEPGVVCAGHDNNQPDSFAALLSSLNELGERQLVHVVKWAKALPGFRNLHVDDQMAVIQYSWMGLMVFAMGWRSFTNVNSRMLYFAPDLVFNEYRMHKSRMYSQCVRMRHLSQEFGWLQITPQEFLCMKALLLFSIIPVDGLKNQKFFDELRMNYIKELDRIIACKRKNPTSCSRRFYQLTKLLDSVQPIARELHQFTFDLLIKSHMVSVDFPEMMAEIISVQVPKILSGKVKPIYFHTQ
Nature of the assay: AR transcriptional output, ARE-luciferase assay in HEK 293T cells. As to conditions: for antagonist or inverse agonist activity on AR transcriptional activity (in words): 10 μM, HEK 293T, FIG. 6A; for activity at 10 µM: HEK-293T, read-out: AR antagonist activity (% RLU). How it is done: 100% is set to the activity with 200 μM testosterone, and 0% is set to the basal level (no ligand).
Cells were maintained in steroid free media, and stimulated with 200 μM testosterone, followed immediately by administration of exemplary compounds (Table 1, below). RLU is relative luciferase units, relative to DMSO control with 200 μM testosterone alone. Data represent an average of 3 independent experiments performed in triplicate wells per compounds at 10 μM.
Cells were maintained in steroid-free media, and stimulated with 200 μM testosterone, followed immediately by administration of a test compound. […] Compounds were dosed at 10 μM in FIGS. 6A and 6B.
Cells were maintained in steroid-free media, and stimulated with 200 μM testosterone, followed immediately by administration of a test compound.

The test system of a further assay is LNCaP ARF876L. The assay can be described thus: IncuCyte % confluence cell growth inhibition, LNCaP ARF876L. As to conditions: Homo sapiens, AR-positive, AR mutation F876L, % cell growth inhibition relative to DMSO. How it is done:
as §1

[1] abbreviates: LAPC4, AR-positive, AR w.t., % cell growth inhibition relative to DMSO, read-out: IC50 values (μM), LAPC4.
[2] abbreviates: DU-145, AR-negative, % cell growth inhibition relative to DMSO, read-out: IC50 values (μM), DU145.
[3] abbreviates: 22Rv1, AR-positive, AR mutation H874Y, % cell growth inhibition relative to DMSO, read-out: IC50 values (μM), 22Rv1.
[4] abbreviates: AR-positive, AR w.t., % cell growth inhibition relative to DMSO.
Where [5] appears, read: AR-positive, AR mutation T877A, % cell growth inhibition relative to DMSO.
Where [6] appears, read: PC-3, AR-negative, % cell growth inhibition relative to DMSO, read-out: IC50 values (μM), PC3.
Setting [7] is: LAPC4, read-out: IC50 values (μM), LAPC4.
Where [8] appears, read: DU-145, read-out: IC50 values (μM), DU145.
Setting [9] is: 22Rv1, read-out: IC50 values (μM), 22Rv1.
Where [10] appears, read: PC-3, read-out: IC50 values (μM), PC3.

With `CNC(=O)c1ccc(N2C(=S)N(c3cnc(C#N)c(C(F)(F)F)c3)C(=O)C23CCC3)cc1F` [ARN509, reference compound], the IC50 in the assay with LAPC4 (setting [1]) was 86 µM; in the assay with DU145 (setting [2]), 61.8 µM; in the assay with 22Rv1 (setting [3]), 32.5 µM; with LNCaP ARin vivo (setting [4]), 270 µM; in the assay with LNCaP (setting [5]), 34.5 µM; with LNCAP AR (setting [4]), 98.9 µM. The IC50 with PC3 (setting [6]) stood at 300 µM.
Turning to `CC(=O)N1CCN(CCOc2ccc(C3CCN(C4=Nn5c(nnc5C(F)(F)F)CC4)CC3)cc2)CC1` [AZD3514, reference compound], the IC50 is 30.5 µM with LAPC4 (setting [1]); 61.2 µM in the assay with DU145 (setting [2]); 26.8 µM in the assay on 22Rv1 (setting [3]); 76.9 µM with LNCaP (setting [5]); 25.8 µM with LNCAP AR (setting [4]); 122 µM in the assay on PC3 (setting [6]).
For `CC(O)(CS(=O)(=O)c1ccc(F)cc1)C(=O)Nc1ccc(C#N)c(C(F)(F)F)c1` (stereo not drawn) [Bicalutamide, bicalutamide, reference compound], the IC50 in the assay with LAPC4 (setting [1]) turned out to be 67 µM; in the assay on 22Rv1 (setting [3]), 53.4 µM; with LNCAP AR (setting [4]), 80.5 µM; with PC3 (setting [6]), 239 µM.
As to `C#Cc1ccc(CN2C(=O)N(c3ccc(C#N)c(C(F)(F)F)c3)C(=O)C2(C)C)cc1` [Compound 6, 4-[3-[(4-ethynylphenyl)methyl]-4,4-dimethyl-2,5-dioxo-1-imidazolidinyl]-2-(trifluoromethyl)-benzonitrile], at AR, the “antagonist or inverse agonist activity on AR transcriptional activity (in words)” value was “relatively weak antagonists” and the activity at 10 µM was 138%.
On the same counts, the results for `C#Cc1ccc(CN2C(=S)N(c3ccc(C#N)c(C(F)(F)F)c3)C(=O)C2(C)C)cc1` [Compound 10, 4-(3-(4-ethynylbenzyl)-4,4-dimethyl-5-oxo-2-thioxoimidazolidin-1-yl)-2-(trifluoromethyl)benzonitrile] are “relatively weak antagonists” and 95%.
On the same counts, the results for `C#Cc1ccc(N2C(=S)N(c3ccc(C#N)c(C(F)(F)F)c3)C(=O)C2(C)C)cc1` [Compound 13, 4-(3-(4-ethynylphenyl)-4,4-dimethyl-5-oxo-2-thioxoimidazolidin-1-yl)-2-(trifluoromethyl)benzonitrile] are “relatively weak antagonists” and 59%.
As for `Cn1cc(-c2ccc(CN3C(=O)N(c4ccc(C#N)c(C(F)(F)F)c4)C(=O)C3(C)C)cc2)nn1` [Compound 14b, 4-(4,4-dimethyl-3-(4-(1-methyl-1H-1,2,3-triazol-4-yl)benzyl)-2,5-dioxoimidazolidin-1-yl)-2-(trifluoromethyl)benzonitrile], at AR, the activity at 10 µM was -3%.
Still for that read-out and setting: in the case of `Cn1cc(-c2ccc(CN3C(=S)N(c4ccc(C#N)c(C(F)(F)F)c4)C(=O)C3(C)C)cc2)nn1` [Compound 15b, 4-(4,4-dimethyl-3-(4-(1-methyl-1H-1,2,3-triazol-4-yl)benzyl)-5-oxo-2-thioxoimidazolidin-1-yl)-2-(trifluoromethyl)benzonitrile] it was -41%; in that of `CCn1cc(-c2ccc(CN3C(=S)N(c4ccc(C#N)c(C(F)(F)F)c4)C(=O)C3(C)C)cc2)nn1` [Compound 15c, 4-(3-(4-(1-ethyl-1H-1,2,3-triazol-4-yl)benzyl)-4,4-dimethyl-5-oxo-2-thioxoimidazolidin-1-yl)-2-(trifluoromethyl)benzonitrile], 3%.
The same measure, in the same setting: in the case of `CCCn1cc(-c2ccc(CN3C(=S)N(c4ccc(C#N)c(C(F)(F)F)c4)C(=O)C3(C)C)cc2)nn1` [Compound 15d, 4-(4,4-dimethyl-5-oxo-3-(4-(1-propyl-1H-1,2,3-triazol-4-yl)benzyl)-2-thioxoimidazolidin-1-yl)-2-(trifluoromethyl)benzonitrile] it was 4%.
Still for that read-out and setting: the figure for `CCCCn1cc(-c2ccc(CN3C(=S)N(c4ccc(C#N)c(C(F)(F)F)c4)C(=O)C3(C)C)cc2)nn1` [Compound 15e, 4-(3-(4-(1-butyl-1H-1,2,3-triazol-4-yl)benzyl)-4,4-dimethyl-5-oxo-2-thioxoimidazolidin-1-yl)-2-(trifluoromethyl)benzonitrile] is -3%; for `CC1(C)C(=O)N(c2ccc(C#N)c(C(F)(F)F)c2)C(=S)N1Cc1c[nH]nn1` [Compound 18a] it is 412%.
Turning to `CC1(C)C(=O)N(c2ccc(C#N)c(C(F)(F)F)c2)C(=O)N1Cc1ccc(-c2c[nH]nn2)cc1F` [Compound 19a, 4-(3-(2-Fluoro-4-(1H-1,2,3-triazol-4-yl)benzyl)-4,4-dimethyl-2,5-dioxoimidazolidin-1-yl)-2-(trifluoromethyl)benzonitrile], the IC50 in the assay with LAPC4 (setting [7]) amounted to 30.7 µM; with DU145 (setting [8]), 46.1 µM; in the assay with 22Rv1 (setting [9]) it was 36.7 µM; with LNCaP ARin vivo, 35.8 µM; with LNCaP it was 39 µM; in the assay with LNCaP ARF876L it was 41.4 µM. The IC50 in the assay on LNCAP AR came to 29.4 µM; in the assay with PC3 (setting [10]), 63.4 µM.
For the compound `CC1(C)C(=O)N(c2ccc(C#N)c(C(F)(F)F)c2)C(=O)N1Cc1ccc(-c2c[nH]nn2)c(F)c1` [Compound 19b, 4-(3-(3-Fluoro-4-(1H-1,2,3-triazol-4-yl)benzyl)-4,4-dimethyl-2,5-dioxoimidazolidin-1-yl)-2-(trifluoromethyl)benzonitrile], the IC50 turned out to be 33.1 µM in the assay with LAPC4 (setting [7]); 65 µM in the assay with DU145 (setting [8]); 40.6 µM in the assay on 22Rv1 (setting [9]); 60.1 µM with LNCaP ARin vivo; 43.1 µM with LNCaP; 49.4 µM with LNCaP ARF876L. Further, the results for the IC50 in the assay with LNCAP AR and in the assay on PC3 (setting [10]) were 35.1 µM and 60.9 µM, respectively.
Consider `CC1(C)C(=O)N(c2ccc(C#N)c(C(F)(F)F)c2)C(=O)N1Cc1ccc(-n2ccnn2)cc1` [Compound 20a, 4-(3-(4-(1H-1,2,3-triazol-1-yl)benzyl)-4,4-dimethyl-2,5-dioxoimidazolidin-1-yl)-2-(trifluoromethyl)benzonitrile], for which the activity at 10 µM on AR stood at 57%.
The same measure, in the same setting: in the case of `CC1(C)C(=O)N(c2ccc(C#N)c(C(F)(F)F)c2)C(=O)N1Cc1ccc(-n2cc(CO)nn2)cc1` [Compound 20b, 4-(3-(4-(4-(hydroxymethyl)-1H-1,2,3-triazol-1-yl)benzyl)-4,4-dimethyl-2,5-dioxoimidazolidin-1-yl) 2-(trifluoromethyl)benzonitrile] it was 73%.
Same read-out and setting: in the case of `CC1(C)C(=O)N(c2ccc(C#N)c(C(F)(F)F)c2)C(=O)N1Cc1ccc(-n2cc(CCO)nn2)cc1` [Compound 20c, 4-(3-(4-(4-(2-hydroxyethyl)-1H-1,2,3-triazol-1-yl)benzyl)-4,4-dimethyl-2,5-dioxoimidazolidin-1-yl)-2-(trifluoromethyl)benzonitrile] it was -1%.
